Results taken from the supplement of paper PMC11061612.

Assays:
[1] = test system: TGBC24TKB (Biliary Tract Carcinoma); experiment: combination Emax (second highest fraction inhibited in the dose matrix, 72 h); higher = more inhibition; extreme values may be limits of the assay
Method in brief: (§1)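 Cell lines in DMEM/F12 or RPMI with 10% FBS were plated in 1536-well plates, held 24 hours at 37°C, 5% CO2, then given two-drug dose matrices for 72 hours (DMSO typically 0.2%). Viability was read by CellTiter-Glo 2.0 luminescence and scaled as inhibition from 0 (vehicle wells) to 1 (blank wells). Combination Emax is the second-highest inhibition in the matrix; Bliss excess is observed combination effect minus expected EA + EB − EA·EB, EA and EB being single-agent effects.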

[2] = test system: COR-L95 (Small Cell Lung Carcinoma); experiment: as above
Method in brief: as §1

[3] = test system: NCI-H211 (Small Cell Lung Carcinoma); experiment: as above
Method in brief: as §1

[4] = test system: NCI-H211 (Small Cell Lung Carcinoma); experiment: Bliss excess, mean over the matrix (fraction); higher = more synergy
Method in brief: as §1
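Throughout, for Bliss excess, mean over the matrix: after 72 h of two-drug dosing.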

SMILES: CN(CCO)CC[C@H](CSc1ccccc1)Nc1ccc(S(=O)(=O)NC(=O)c2ccc(N3CCC([C@@H](O)c4ccccc4-c4ccc(Cl)cc4)CC3)cc2)cc1S(=O)(=O)C(F)(F)F [AZD4320] + Cc1cc2ncnn2cc1Nc1ncc2c(n1)n(C1CCOCC1)c(=O)n2C [AZD7648] (first compound max 1 µM, 7x7, partner max 10 µM)
- combination Emax [1]: 0.682
- combination Emax [2]: 1

SMILES: CN(CCO)CC[C@H](CSc1ccccc1)Nc1ccc(S(=O)(=O)NC(=O)c2ccc(N3CCC([C@@H](O)c4ccccc4-c4ccc(Cl)cc4)CC3)cc2)cc1S(=O)(=O)C(F)(F)F [AZD4320] + Cn1cnc2c(F)c(Nc3ccc(Br)cc3Cl)c(C(=O)NOCCO)cc21 [Selumetinib] (first compound max 1 µM, 7x7, partner max 3 µM)
- combination Emax [1]: 0.791
- combination Emax [2]: 1

SMILES: COc1nnc2ccc(N3CCC(c4ccc(OCCN5CCN(C)C(=O)[C@H]5C)cc4)CC3)nn12 [AZD5153] + C=CCn1c(=O)c2cnc(Nc3ccc(N4CCN(C)CC4)cc3)nc2n1-c1cccc(C(C)(C)O)n1 [AZD1775] (first compound max 1 µM, partner max 1 µM)
- combination Emax [3]: 0.993
- combination Emax [1]: 0.826
- combination Emax [2]: 0.433
- Bliss excess [4]: -0.0008

SMILES: COc1nnc2ccc(N3CCC(c4ccc(OCCN5CCN(C)C(=O)[C@H]5C)cc4)CC3)nn12 [AZD5153] + CC1(C)CCC(CN2CCN(c3ccc(C(=O)NS(=O)(=O)c4ccc(NCC5CCOCC5)c([N+](=O)[O-])c4)c(Oc4cnc5[nH]ccc5c4)c3)CC2)=C(c2ccc(Cl)cc2)C1 [Venetoclax] (first compound max 1 µM, 7x7, partner max 1 µM)
- combination Emax [3]: 1
- combination Emax [1]: 0.642
- combination Emax [2]: 0.802
- Bliss excess [4]: 0.03

SMILES: COc1nnc2ccc(N3CCC(c4ccc(OCCN5CCN(C)C(=O)[C@H]5C)cc4)CC3)nn12 [AZD5153] + CCN(CCO)CCCOc1ccc2c(Nc3cc(CC(=O)Nc4cccc(F)c4)[nH]n3)ncnc2c1 [AZD2811] (first compound max 1 µM, 7x7, partner max 1 µM)
- combination Emax [3]: 1
- combination Emax [1]: 0.765
- combination Emax [2]: 0.308
- Bliss excess [4]: -0.0081

SMILES: Cc1c2c(nn1C)CSCc1cc(n(C)n1)CSc1cc(c3ccccc3c1)OCCCc1c(C(=O)O)n(C)c3c-2c(Cl)ccc13 [AZD5991] + C1CN(CCC1(C(=O)N[C@@H](CCO)C2=CC=C(C=C2)Cl)N)C3=NC=NC4=C3C=CN4 [Capivasertib] (first compound max 1 µM, 7x7, partner max 3 µM)
- combination Emax [1]: 0.175
- combination Emax [2]: 0.409

SMILES: Cc1c2c(nn1C)CSCc1cc(n(C)n1)CSc1cc(c3ccccc3c1)OCCCc1c(C(=O)O)n(C)c3c-2c(Cl)ccc13 [AZD5991] + C=CCn1c(=O)c2cnc(Nc3ccc(N4CCN(C)CC4)cc3)nc2n1-c1cccc(C(C)(C)O)n1 [AZD1775] (first compound max 1 µM, partner max 1 µM)
- combination Emax [1]: 0.672
- combination Emax [2]: 0.757

SMILES: Cc1c2c(nn1C)CSCc1cc(n(C)n1)CSc1cc(c3ccccc3c1)OCCCc1c(C(=O)O)n(C)c3c-2c(Cl)ccc13 [AZD5991] + CC1(C)CCC(CN2CCN(c3ccc(C(=O)NS(=O)(=O)c4ccc(NCC5CCOCC5)c([N+](=O)[O-])c4)c(Oc4cnc5[nH]ccc5c4)c3)CC2)=C(c2ccc(Cl)cc2)C1 [Venetoclax] (first compound max 1 µM, 7x7, partner max 1 µM)
- combination Emax [1]: 0.304
- combination Emax [2]: 0.914

SMILES: Cc1c2c(nn1C)CSCc1cc(n(C)n1)CSc1cc(c3ccccc3c1)OCCCc1c(C(=O)O)n(C)c3c-2c(Cl)ccc13 [AZD5991] + CCN(CCO)CCCOc1ccc2c(Nc3cc(CC(=O)Nc4cccc(F)c4)[nH]n3)ncnc2c1 [AZD2811] (first compound max 1 µM, 7x7, partner max 1 µM)
- combination Emax [1]: 0.543
- combination Emax [2]: 0.449

SMILES: Cc1c2c(nn1C)CSCc1cc(n(C)n1)CSc1cc(c3ccccc3c1)OCCCc1c(C(=O)O)n(C)c3c-2c(Cl)ccc13 [AZD5991] + CN(C)CCCOc1ccc(-c2ccc3ncc4c(c3c2)n(C2CCOCC2)c(=O)n4C)cn1 [AZD0156] (first compound max 1 µM, 7x7, partner max 1 µM)
- combination Emax [1]: 0.165
- combination Emax [2]: 0.378
